Measurements published in patent US7968139B2, “Packaged beverages” (Kao Corporation, priority 2000, dated 2011).

Tests used:
[1] = test system: PPAR-dependent gene transcription in human hepatic cell line HepG2; experiment: Test on PPAR-dependent gene transcription activation (PPAR-Luc reporter), HepG2; assay type: cell-based; settings: HepG2, test concentration 10 μM, 24 hours
Method: (§1) The small intestine epithelial cell line IEC-6 and human hepatic cell line HepG2 were inoculated on a 12 well plate and cultured in DMEM (5% FCS) for 24 hours. A DNA chain containing PPAR responsive element (underlined portion) ([…]), a SV40 promoter gene, a PPAR reporter plasmid (PPAR-Luc) containing firefly luciferase gene, and a control plasmid having thymidine kinase promoter gene linked on the upstream of renilla luciferase gene were introduced simultaneously by using a transfection reagent (“Superfect transfection reagent”, product of Promega Corporation) each in an amount of 0.5 μg/well. The culture broth was then replaced with a DMEM (—FCS) medium containing a test substance, followed by incubation for further 24 hours. After washing with PBS, the cells were lysed using dual luciferase assay system (product of Promega Corporation). To the resulting lysate, a substrate solution containing luciferin was added and firefly and renilla luciferase activities were measured by a luminometer. In this test system, a PPAR-dependent gene transcriptional activator was searched for by measuring the transcriptional activity (luciferase activity of PPAR-dependent gene. It is to be noted that the PPAR-dependent gene transcriptional activity (luciferase activity) was defined as described below. PPAR-dependent gene transcriptional activity (luciferase activity)=(firefly luciferase activity by PPAR-Luc)/(renilla luciferase activity by TK-Luc)
(§2) In Table 8, PPAR-dependent gene transcription activating capacity of each test substance in IEC-6 and HepG2 cell lines is shown. In this table, PPAR-dependent transcriptional activity by the control is set at 100 and activity relative to it is indicated. As a positive control, fenofibrate was employed.

[2] = test system: PPAR-dependent gene transcription in small intestine epithelial cell line IEC-6; experiment: Test on PPAR-dependent gene transcription activation (PPAR-Luc reporter), IEC-6; assay type: cell-based; settings: IEC-6, test concentration 10 μM, 24 hours
Method: as §1, §2

Compound	PPAR-dependent transcriptional activity (luciferase activity) relative to control set at 100 [1]	PPAR-dependent transcriptional activity (luciferase activity) relative to control set at 100 [2]
O=C(O[C@@H]1Cc2c(O)cc(O)cc2O[C@@H]1c1ccc(O)c(O)c1)c1cc(O)c(O)c(O)c1 [Epicatechin gallate]	166	178
Oc1cc(O)c2c(c1)O[C@H](c1ccc(O)c(O)c1)[C@H](O)C2 [Epicatechin]	150	158
O=C(O[C@@H]1Cc2c(O)cc(O)cc2O[C@@H]1c1cc(O)c(O)c(O)c1)c1cc(O)c(O)c(O)c1 [Epigallocatechin gallate]	172	184
Catechin	149	152
